According to patent US4826837A, “Cinnoline-carboxamides and process for their preparation” (Farmitalia Carlo Erba s.r.l., priority 1987, dated 1989):

Key:
TU5 tumoral cells = assay: Macrophage cytotoxic activity towards TU5 tumoral cells (peritoneal cells of mice treated i.p., collected seven days later and incubated with tumor target cells); assay type: cell-based, mouse; conditions: peritoneal cells collected 7 days later, 48 h incubation with TU5 tumoral cells, colorimetric at 570 nm
Description: The experimental procedure to evaluate this activity is as follows: groups of 4 mice are treated i.p. with the tested compounds and then, seven days later, peritoneal cells are collected and plated for 2 hours at 37° C. After this period the walls are washed to eliminate the non adherent cells, tumor target cells are then added and the incubation is prolonged for 48 hours. At the end of this period the target cells viability is evaluated by a colorimetric method and quantified at 570 nm.
The following table summarizes the immunostimulating activity data of some compounds of the invention, obtained according to the hereabove experimental procedure, towards TU5 tumoral cells (Eur. J. Immunol. 1982, 12, 320)
Cytotoxic activity is calculated as % inhibition of TU5 tumoral cells growth using the following formula [formula] where
O.D.A.=optical density from cocultured TU5 and vehicol treated macrophages
O.D.B.=optical density from vehicol treated macrophages alone
O.D.C=optical density from cocultured TU5 and FCE compound treated macrophages
O.D.D=optical density from FCE compound treated macrophages alone.

[1] = Approximate acute toxicity (LD50) in the mouse, per os; conditions: in vivo, po, single administration of increasing doses, measured on seventh day after the day of treatment
Description: For example, the approximate acute toxicity (LD50) in the mouse of the compound 4-hydroxy-N-(2-pyridyl)-cinnoline-3-carboxamide determined per os with single administration of increasing doses and measured on the seventh day after the day of treatment, is higher than 800 mg/kg. Analogous toxicity data have been found for the other compounds of the invention.

Compound | Macrophage cytotoxic activity (% inhibition) (TU5 tumoral cells; 50 mg/kg i.p. to mice) [%] | LD50 at 168 h [1] [mg/kg] | Macrophage cytotoxic activity (% inhibition) (TU5 tumoral cells; 10 mg/kg i.p. to mice) [%]
O=C(Nc1ccccc1)c1nnc2ccccc2c1O [FCE 25008, 4-hydroxy-N-phenyl-cinnoline-3-carboxamide] | 71 | – | –
CN(C(=O)c1nnc2ccccc2c1O)c1ccccn1 [FCE 25051, 4-hydroxy-N-methyl-N-(2-pyridyl)-cinnoline-3-carboxamide] | 80 | – | –
O=C(Nc1ccccn1)c1nnc2ccccc2c1O [FCE 24089, 4-hydroxy-N-(2-pyridyl)-cinnoline-3-carboxamide] | – | > 800 | 90
